According to article PMC10762035, “Molecular basis of human trace amine-associated receptor 1 activation” (Nature Communications, 2024):
Values joined by “and” are separate entries in the source; they are usually repeats but may differ in a detail not shown here. Equal values may be shown once. Where a name gives a salt, the structure may show the parent alone. Read-outs that look alike come from different tables or passages of the source.

How the values were obtained:
hTA1 [1] = target: T1, hTA1 (Homo sapiens, UniProt Q96RJ0); assay: Screen of 89 aminergic compounds at 10 µM, cAMP accumulation in HEK293T cells; format: cell-based;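 further: HEK293T cells co-transfected with hTA1 and GloSensor cAMP reporter, cAMP accumulation detected by luminescence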
T1 construct: expressed in transfected cells; host or cells: HEK293T
T1 sequence (Q96RJ0 1-339): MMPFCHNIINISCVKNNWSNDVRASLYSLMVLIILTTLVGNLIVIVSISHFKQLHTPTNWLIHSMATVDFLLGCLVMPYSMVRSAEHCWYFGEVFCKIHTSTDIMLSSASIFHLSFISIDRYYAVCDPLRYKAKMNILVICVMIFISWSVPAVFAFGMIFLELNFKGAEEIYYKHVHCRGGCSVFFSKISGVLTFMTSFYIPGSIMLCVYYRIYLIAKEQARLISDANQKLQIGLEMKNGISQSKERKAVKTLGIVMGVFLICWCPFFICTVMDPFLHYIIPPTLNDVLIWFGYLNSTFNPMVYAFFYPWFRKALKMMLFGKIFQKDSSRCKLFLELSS

hTA1 [2] = target: T1, hTA1; assay: GloSensor cAMP accumulation assay, concentration response, wild-type hTA1 in transfected HEK293T cells; format: cell-based; conditions: log[Compound], replicate wells;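 further: luminescence read after 30 min compound exposure at room temperature in cells preloaded with D-Luciferin, reflecting Gs-driven cAMP rise, efficacy scaled to the maximal β-PEA response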
[3] = quadruplicate values, screen at 10 µM

SMILES: CCN1CCCC1CNC(=O)c1cc(S(=O)(=O)CC)c(N)cc1OC (centres unmarked) [Amisulpride]
- Luminescence for Screening Data (hTA1 [1]; [3]): 8 and 6.7 and 8.1 and 7

SMILES: CN1CCN(c2cccc3c(S(=O)(=O)c4ccccc4)c[nH]c23)CC1 [Ro4368554]
- Luminescence for Screening Data (hTA1 [1]; [3]): 5.1 and 6 and 4.2 and 4.8

SMILES: CSc1ccc2c(c1)C(N1CCN(C)CC1)Cc1ccccc1S2 (centres unmarked) [Methiothepin]
- Luminescence for Screening Data (hTA1 [1]; [3]): 2.6 and 3.3 and 3 and 3.4

SMILES: CCN(CC)C(=O)[C@@H]1C=C2c3cccc4[nH]c(Br)c(c34)C[C@H]2N(C)C1 [2-Br LSD]
- Luminescence for Screening Data (hTA1 [1]; [3]): 10.4 and 10.1 and 9.5 and 7.6

SMILES: NCCc1ccccc1 [bPEA]
- Normalized Luminescence Counts for WT hTA1 (hTA1 [2]; M = -5): 114.55 and 104.58 and 118.623 and 102.53 and 95.7683 and 107.085
- Normalized Luminescence Counts for WT hTA1 (hTA1 [2]; M = -5.522): 96.3904 and 87.8446 and 97.5922 and 98.0692 and 90.9789 and 92.0588
- Normalized Luminescence Counts for WT hTA1 (hTA1 [2]; M = -6): 88.2006 and 75.1148 and 94.0536 and 103.14 and 88.8658 and 89.805
- Normalized Luminescence Counts for WT hTA1 (hTA1 [2]; M = -6.522): 73.7573 and 64.299 and 91.1383 and 74.7791 and 68.7219 and 73.7461
- Normalized Luminescence Counts for WT hTA1 (hTA1 [2]; M = -7): 70.4636 and 45.5827 and 61.4726 and 66.5619 and 44.258 and 53.6961
- Normalized Luminescence Counts for WT hTA1 (hTA1 [2]; M = -7.522): 36.1467 and 21.3027 and 35.9464 and 26.7905 and 17.9158 and 22.3766
- Normalized Luminescence Counts for WT hTA1 (hTA1 [2]; M = -8): 22.727 and 16.7405 and 21.3472 and 13.3611 and 11.9525 and 11.6238
- Normalized Luminescence Counts for WT hTA1 (hTA1 [2]; M = -8.522): 4.5 and 4.523 and 5.969 and 4.393 and 2.514 and 2.6083
- Normalized Luminescence Counts for WT hTA1 (hTA1 [2]; M = -9): 1.986 and 1.318 and 1.8743 and 1.716 and 1.012 and 1.106
- Normalized Luminescence Counts for WT hTA1 (hTA1 [2]; M = -9.522): -1.063 and -1.33 and -0.4402 and -0.06817 and 0.1666 and -0.4908
- Normalized Luminescence Counts for WT hTA1 (hTA1 [2]; M = -10): -0.596 and -1.264 and -0.5515 and -0.4438 and -0.7725 and -0.6786
- Normalized Luminescence Counts for WT hTA1 (hTA1 [2]; M = -10.522): -1.3749 and -1.931 and -0.6405 and 0.0727 and -0.5847 and -1.101
- Normalized Luminescence Counts for WT hTA1 (hTA1 [2]; M = -11): -0.1286 and -1.241 and 0.2497 and 0.6362 and -0.3499 and -0.7725
- Normalized Luminescence Counts for WT hTA1 (hTA1 [2]; M = -11.522): -0.01735 and -1.575 and -0.7963 and 0.5892 and -0.3969 and -0.256
- Normalized Luminescence Counts for WT hTA1 (hTA1 [2]; M = -12): -1.353 and -1.3749 and -1.286 and 0.02574 and -0.4908 and -0.3029
- Normalized Luminescence Counts for WT hTA1 (hTA1 [2]; M = -12.522): -1.152 and -1.664 and -0.9075 and 0.5892 (2×) and 0.4483

SMILES: CCN(CC)C(=O)/C(C#N)=C/c1cc(O)c(O)c([N+](=O)[O-])c1 [Entacapone]
- Luminescence for Screening Data (hTA1 [1]; [3]): 5.5 and 5.2 and 6.2 and 5.6

SMILES: COc1cc2nc(N3CCN(C(=O)c4ccco4)CC3)nc(N)c2cc1OC [Prazosin hydrochloride]
- Luminescence for Screening Data (hTA1 [1]; [3]): 6.6 and 6.4 and 6.7 and 7.2

SMILES: Cl.O=C(c1ccc(F)cc1)C1CCN(CCn2c(=S)[nH]c3ccccc3c2=O)CC1 [Altanserin hydrochloride hydra]
- Luminescence for Screening Data (hTA1 [1]; [3]): 9.1 and 6 and 8.8 and 5.9

SMILES: O=C1Nc2ccc(Cl)cc2[C@@](C#CC2CC2)(C(F)(F)F)O1 [Evafirenz]
- Luminescence for Screening Data (hTA1 [1]; [3]): 3.7 and 4.1 and 4.4 and 4.6

SMILES: Cc1[nH]c2ccc(Cl)cc2c1C1=CCNCC1 [EMD386088]
- Luminescence for Screening Data (hTA1 [1]; [3]): 14.2 and 14.9 and 14.6 and 13.7

SMILES: N.N.[Cl][Pt][Cl] [Cisplatin]
- Luminescence for Screening Data (hTA1 [1]; [3]): 5.8 and 6.4 and 6.9 and 6.2

SMILES: O=C(CCCCCN1CCN(c2ccccc2-c2ccccc2)CC1)NC1CCCc2ccccc21 (centres unmarked) [LP12]
- Luminescence for Screening Data (hTA1 [1]; [3]): 5.4 and 4.7 and 7.1 and 5

SMILES: O=C(c1ccc(F)cc1)C1CCN(CCn2c(=O)[nH]c3ccccc3c2=O)CC1 [Ketanserin]
- Luminescence for Screening Data (hTA1 [1]; [3]): 6.8 and 5.5 and 5.4 and 3.9

SMILES: CN1CCc2ccccc2Cc2[nH]c3ccccc3c2CC1 [LE300]
- Luminescence for Screening Data (hTA1 [1]): 5.7 and 3.6 and 5.5 and 5

SMILES: CN(C)c1ccc(/C=C/c2cc[n+](C)cc2)cc1.[I-] [ASP-iodide]
- Luminescence for Screening Data (hTA1 [1]; [3]): 6.9 and 6.2 and 4.9 and 4.4

SMILES: NCCc1c[nH]c2ccc(O)cc12 [5HT]
- Normalized Luminescence Counts for WT hTA1 (hTA1 [2]; M = -5): 22.7551 and 23.5409 and 27.4699 and 21.1146 and 16.9666 and 15.5049
- Normalized Luminescence Counts for WT hTA1 (hTA1 [2]; M = -5.522): 12.7034 and 13.2601 and 13.0636 and 11.1989 and 10.4878 and 9.8162
- Normalized Luminescence Counts for WT hTA1 (hTA1 [2]; M = -6): 16.6652 and 17.3528 and 14.4388 and 9.54 and 6.932 and 6.5768
- Normalized Luminescence Counts for WT hTA1 (hTA1 [2]; M = -6.522): 9.953 and 14.2096 and 13.2928 and 9.698 and 6.261 and 7.564
- Normalized Luminescence Counts for WT hTA1 (hTA1 [2]; M = -7): 9.7567 and 9.593 and 11.8194 and 6.3 and 5.55 and 6.814
- Normalized Luminescence Counts for WT hTA1 (hTA1 [2]; M = -7.522): 9.298 and 11.492 and 8.12 and 4.167 and 4.444 and 4.799
- Normalized Luminescence Counts for WT hTA1 (hTA1 [2]; M = -8): 9.298 and 7.236 and 9.822 and 3.732 and 3.653 and 4.048
- Normalized Luminescence Counts for WT hTA1 (hTA1 [2]; M = -8.522): 4.387 and 5.369 and 8.578 and 1.7177 and 3.258 and 2.5868
- Normalized Luminescence Counts for WT hTA1 (hTA1 [2]; M = -9): 3.339 and 1.604 and 3.176 and 2.073 and 0.9671 and 0.7301
- Normalized Luminescence Counts for WT hTA1 (hTA1 [2]; M = -9.522): 0.589 and 1.473 and 1.408 and 0.01898 and -0.2575 and -0.4946
- Normalized Luminescence Counts for WT hTA1 (hTA1 [2]; M = -10): 1.702 and 0.2289 and 0.1307 and -0.9291 and -0.09953 and -0.2971
- Normalized Luminescence Counts for WT hTA1 (hTA1 [2]; M = -10.522): 0.6218 and 0.8182 and -0.295 and -1.285 and -0.7316 and -1.364
- Normalized Luminescence Counts for WT hTA1 (hTA1 [2]; M = -11): -0.2622 (2×) and -0.5897 and 0.335 and 0.177 and -0.02052
- Normalized Luminescence Counts for WT hTA1 (hTA1 [2]; M = -11.522): 0.06517 and 0.3926 and -0.09854 and -0.1785 (2×) and 0.09799
- Normalized Luminescence Counts for WT hTA1 (hTA1 [2]; M = -12): 0.1307 and 0.5563 and -0.6551 and -0.6131 and 0.256 and 0.2955
- Normalized Luminescence Counts for WT hTA1 (hTA1 [2]; M = -12.522): -0.2295 and 0.1307 and -0.1313 and 0.6906 and 0.8486 and -0.6921

SMILES: CC[C@@H](CO)NC(=O)[C@@H]1C=C2c3cccc4[nH]cc(c34)C[C@H]2N(C)C1 [Methylergonovine]
- Normalized Luminescence Counts for WT hTA1 (hTA1 [2]; M = -5): 45.3336 and 42.9514 and 53.7117 and 43.7792 and 37.0624 and 36.5834
- Normalized Luminescence Counts for WT hTA1 (hTA1 [2]; M = -5.522): 17.8708 and 18.4864 and 21.6449 and 29.4218 and 29.3534 and 29.1139
- Normalized Luminescence Counts for WT hTA1 (hTA1 [2]; M = -6): 12.9992 and 11.3664 and 9.546 and 15.3039 and 15.0416 and 13.8556
- Normalized Luminescence Counts for WT hTA1 (hTA1 [2]; M = -6.522): 6.093 and 6.147 and 6.254 and 7.082 and 6.8879 and 7.207
- Normalized Luminescence Counts for WT hTA1 (hTA1 [2]; M = -7): 4.514 and 3.604 and 5.103 and 3.125 and 3.353 and 3.387
- Normalized Luminescence Counts for WT hTA1 (hTA1 [2]; M = -7.522): 2.5066 and 3.845 and 3.203 and 2.03 and 1.87 and 2.201
- Normalized Luminescence Counts for WT hTA1 (hTA1 [2]; M = -8): 2.5869 and 2.4263 and 1.489 and 1.2088 and 1.368 and 1.722
- Normalized Luminescence Counts for WT hTA1 (hTA1 [2]; M = -8.522): 1.65 and 1.864 and 0.9274 and 1.414 and 1.14 and 1.916
- Normalized Luminescence Counts for WT hTA1 (hTA1 [2]; M = -9): 0.3385 and 0.4991 and -0.009489 and 1.152 and 1.026 and 0.8895
- Normalized Luminescence Counts for WT hTA1 (hTA1 [2]; M = -9.522): -0.06302 and -0.3842 and -0.8125 and 0.7184 and 0.4676 and 0.4447
- Normalized Luminescence Counts for WT hTA1 (hTA1 [2]; M = -10): -0.08979 and -0.3039 and -0.2504 and 0.2509 and 0.1026 and 0.2167
- Normalized Luminescence Counts for WT hTA1 (hTA1 [2]; M = -10.522): -0.3039 and -0.4645 and -0.2236 and 0.05702 and 0.03421 and -0.1026
- Normalized Luminescence Counts for WT hTA1 (hTA1 [2]; M = -11): 0.09758 and -0.2772 and 0.4723 and 0.1825 and -0.1939 and 0
- Normalized Luminescence Counts for WT hTA1 (hTA1 [2]; M = -11.522): 0.4188 and 0.74 and 0.6597 and 0.2395 and 0.7298 and 0.3877
- Normalized Luminescence Counts for WT hTA1 (hTA1 [2]; M = -12): 0.5794 and 0.8471 and 0.74 and 0.3079 and 0.2281 and 0.479
- Normalized Luminescence Counts for WT hTA1 (hTA1 [2]; M = -12.522): -0.4378 and 0.6865 and 0.7668 and 0.6272 and 0.479 and 0.1026
